Test results as given in patent publication US20260137679A1, “GCN2 INHIBITOR FOR TREATING METASTASES” (HIBERCELL, INC., priority 2022, published 2026).

Key:
[1] = system: primary 4T1 tumors; test: 4T1 orthotopic allograft, primary tumor volume; type: in vivo, mouse; settings: PO, BID; three independent studies; FIG. 4
Description: (§1) 4T1 mouse breast cancer cell line was purchased from American Type Culture Collection (ATCC). Cells were free of human and animal pathogens as tested by h-IMPACT-I and IMPACT-III. Additionally, the genetic profile of the cells matched with the ECACC reference standard as tested by STR based DNA fingerprinting assay. Cells were maintained in RPMI 1640 with 10% FBS, and cultured up to 4 passages prior to implantation. Cells were harvested at ˜80% confluence, washed twice with RPMI 1640 without FBS and suspended in RPMI 1640 without FBS at 10×10^6 cells/mL for implantation.
(§2) Female Balb/c mice (7-8 week of age) were implanted into the right 4th mammary fat pad under Isoflurane anesthesia with 0.5×10^6 4T1 cells/mouse in a total volume of […] on Day 0 Animals were randomized into treatment groups when the average tumor volume reached 50-100 mm^3 on Day 6 post inoculation. Tumors were measured via caliper 2×/week. Tumor volume was calculated using the formula [tumor volume (mm^3)=π/6×length×width^2) Animals were sacrificed at either 7, 14, or 21 days post treatment via CO2 asphyxiation.

[2] = system: CD4 and CD8 T-cells, S100A8/S100A9 in CD11b+ cells; test: Multiplex imaging of FFPE lung samples from 4T1 allografted mice; type: in vivo, mouse
Experimental: Slides were cut from FFPE lung samples. Slides were deparaffinized, rehydrated and heat mediated antigen retrieval was conducted with AR6 buffer (Akoya). Slides were blocked with Roche diagnostics antibody diluent (Fisher) and stained with primary antibodies for 1 hr at 110 rpm. HRP-conjugated secondary antibodies were added for 10 mins at 110 rpm followed by 10 mins with OPAL detection dye (Akoya). For multiplex staining, this process was repeated starting at the antigen retrieval stage. Multispectral Images were captured on the Polaris imaging system (Akoya) and spectral unmixing and cell segmentation was performed using Inform Tissue Finder software (Akoya). Imaging data was converted into .csv files and imported into Flowjo for immune phenotyping.
Primary antibodies used were rat anti-mouse CD4 (clone 4SM95, Thermo 14-9766-82-82, paired with Opal 620), rabbit anti-mouse Ki67 (clone SP6, Thermo MA5-14520, paired with Opal 780), rabbit anti-mouse CD8a (clone D4W2Z, Cell Signaling 98941, paired with Opal 520). Rabbit anti-mouse S1008A (Polyclonal, Proteintech 15792-1-AP, paired with Opal 520), rabbit anti-mouse S1009A (Polyclonal, Proteintech 26992-1-AP, paired with Opal 570), rabbit anti-mouse CD11b (clone EPR1344, Abcam 133357, paired with Opal 690).

[3] = system: BM-derived MDSCs / T-cells; test: Ex vivo co-culture of bone marrow-derived MDSCs with purified T-cells in tryptophan-depleted medium; type: cell-based, mouse; settings: 0.1 μM HC-7366, 1:8 MDSCs:T-cells, FIG. 11B
Experimental: Single cell suspensions from mouse bone marrow were prepared. Cells were cultured in RPMI complete medium supplemented with GMCSF & IL6 (10 μg/mL) for 4 days to differentiate cells into PMN-MDSCs. T-cells were purified from mouse spleens with EasySep Mouse T-cell isolation kit per manufacturer's instructions Purified T-cells cells were then stained with CellTrace Violet dye (thermo) per manufacturer's instructions. Differentiated MDSCs and purified T-cells were co-cultured in tryptophan-depleted medium+/−HC-7366 (0.1 μM) for […], at a ratio of 1:8 MDSCs:T-cells. Proliferation of T-cells was measured by dilution of CTV via flow cytometry on a BD LSR Fortessa.

[4] = system: S100A8 and S100A9; test: S100A8 and S100A9 levels in PBMCs and plasma of 4T1 allografted mice; type: in vivo, mouse; settings: FIG. 15C
[5] = system: 4T1 mouse breast cancer cell line; test: 4T1 murine orthotopic allograft tumor model, lung metastases (H&E analysis); type: in vivo
Description: as §1, §2
(§3) Lungs were perfused with PBS through the heart to remove as much blood as possible prior to collection. Spleens were collected and weighed. […] The remaining lungs were collected with remaining spleen in RPMI medium+5% FBS on ice for flow cytometry. Separate animals were enrolled for lung IHC analyses. Following euthanasia of these animals, lungs were inflated with 10% neutral buffered formalin prior to formalin fixation for 48 hours and paraffin embedding.
Multiple paraffin sections more than 200 μm apart were cut for each lung sample. […] Images were analyzed using custom-written macros in ImageJ/FIJI (NIH) analyzing the relative proportion of tumor regions to the whole lung area. The tumor regions were transferred onto the images of immune-stained sections and intensities of ASNS and PSAT1 signals within these tumor regions were quantified. […]

[6] = system: ISR-induced amino acid biosynthesis proteins ASNS and PSAT1; test: IHC of ISR-induced proteins in lungs of 4T1 tumor-bearing mice; type: in vivo, mouse; settings: 3 mg/kg HC-7366; 21 days post treatment initiation; FIG. 7B
Experimental: as §3
Multiple paraffin sections more than 200 μm apart were cut for each lung sample. Three sections were stained with H&E on Leica Autostainer while one adjacent section was immuno-stained for ASNS (Cell Signaling #92479) and PSAT1 (Proteintech #10501-1-AP) using the Bond Rx stainer (Leica Biosystems). Stained slides were digitized using Versa 200 slide scanner (Leica Biosystems). Images were analyzed using custom-written macros in ImageJ/FIJI (NIH) analyzing the relative proportion of tumor regions to the whole lung area. The tumor regions were transferred onto the images of immune-stained sections and intensities of ASNS and PSAT1 signals within these tumor regions were quantified. (Graphing and statistics were performed using Prism Graphpad).

[7] = Spleen weight (splenomegaly) in 4T1 allografted mice; type: in vivo, mouse; settings: especially at the activating 3 mg/kg dose level; 3 independent studies; FIG. 8B
Experimental: as §3

[8] = system: MDSCs and T-cells; test: Flow cytometry of single cell suspensions from spleens and lungs of 4T1 mice; type: in vivo, mouse
Description: Tissue processing for single cell suspensions: • Spleen: Spleens were mashed through wetted 70 μm nylon strainer using syringe plunger. Strainers were rinsed with RPMI+5% FBS. Cells were pelleted and RBCs lysed with ACK lysis buffer (Gibco) per manufacturer's instructions. Cells were resuspended in RPMI+5% FBS and counted prior to plating for staining. • Lungs: Lungs were homogenized and enzymatically digested using a Mouse Tumor Dissociation Kit (miltenyi) per manufacturer's instructions. Cells were resuspended in RPMI+5% FBS and counted prior to plating for staining. During the digestion at 37° C., brefeldin A (Biolegend) was included in the enzyme mix to prevent export of cytokines.
1E6 cells per sample were plated in 96 well plates and extracellular staining was performed per standard procedures. Following extracellular staining, cells were fixed and permeabilized using FoxP3/Transcription Factor Staining Buffer Kit (Tonbo) and intracellular staining was performed per standard procedures. The following antibodies were used.
Following staining, flow cytometry was performed on a Cytek Aurora cytometer and analyzed using FlowJo software.

[9] = system: myeloid cells (immune gene transcripts); test: Quantigene gene expression analysis of tumors and spleens of 4T1 mice; type: in vivo, mouse; settings: Day 21 of Tx, FIG. 9
Experimental: Mouse tumor and spleen tissues were snap frozen and stored in −80° C. freezer. The frozen tissue was soaked in 10× volume of the RNAlater®-ICE (ThermoFisher) at −20° C. for >16 hr. Then the tissue was transferred into M tube (Miltenyi Biotech) containing RLT lysis buffer (Qiagen) and homogenized by gentleMACS Dissociators with program of RNA_02 (Miltenyi Biotech). Total RNA was isolated from homogenized tissue using the RNeasy Plus Mini Kit (Qiagen) RNA concentration was determined by Epoch Microplate Spectrophotometer (Biotek).
A custom-made 77-plex mouse Immune QuantiGene Assay kit (ThermoFisher Scientific) using a bead-based multiplex assay were used to measure the expression of 69 immune genes, 4 stress genes plus 4 reference genes with Luminex xMAP 200 (ThermoFisher Scientific) according to the manufacturer's instructions.

[10] = system: ISR-induced proteins (PSAT1, ATF4, TRIB3, ASNS); test: JESS measurement of ISR-induced proteins in primary 4T1 tumors; type: in vivo, mouse; settings: 3 mg/kg HC-7366; 7 days post treatment initiation; FIG. 7C
Experimental: A small (lentil-sized) piece of frozen tumor was lysed in 500 μl of lysis buffer containing 2% SDS, 10% betamercaptoethanol, protease and phosphatase inhibitors (Roche, 04 693 159 001 and 04 906 837 001), and 1× Benzonase (Sigma, E1014-25KU). Each sample was homogenized using a polytron (PT 10-35 GT) for 30 seconds, and heated at 95° C. for 5 minutes. Protein concentrations were determined using a 660 nm Protein assay (Pierce, 22662), with the detergent compatibility reagent (Pierce, 22663), according to manufacturer instructions.
Protein samples were analyzed by JESS (ProteinSimple) using the 12-230 kDa separation module (ProteinSimple, SM-W004), and antibodies targeting PSAT1 (Proteintech, 10501-1-AP), ATF4 (AbCam, ab184909), TRIB3 (Proteintech, 66702-1), and ASNS (Proteintech, 14681-1-AP).

[11] = 4T1 allografted mice, FIGS. 15A-15B
[12] = greater in metastatic lesions than in normal tissue, FIGS. 12E-12F
[13] = 3 mg/kg HC-7366, Day 14, FIGS. 10B-10C

Structure (SMILES): CNC(=O)c1ncn2cc(-c3c(F)ccc(NS(=O)(=O)c4cc(Cl)cnc4OC)c3F)ncc12 [HC-7366, 6-(3-((5-chloro-2-methoxypyridine)-3-sulfonamido)-2,6-difluorophenyl)-N-methylimidazo[1,5-a]pyrazine-1-carboxamide]
- efficacy on primary 4T1 tumors (tumor volume) [1]: little to no efficacy
- S100A8 and S100A9 levels in lung metastases [2, 11]: significant reductions
- S100A8 and S100A9 levels in normal lung tissue [2, 11]: significant reductions
- CD8 T-cells in metastatic lesions of lung ([2]; HC-7366 treated 4T1 allografted mice, FIG. 12C): significantly increased
- CD8 T-cells in normal lung tissue ([2]; HC-7366 treated 4T1 allografted mice, increase compared with that in metastatic lesions, FIG. 12D): to a lesser degree
- Ki67 expression of CD4 T-cells in lung [2, 12]: significantly increased Ki67 expression
- Ki67 expression of CD8 T-cells in lung [2, 12]: significantly increased Ki67 expression
- T-cell proliferation in the presence of BM-derived MDSCs (CTV dilution) [3]: significantly rescued T-cell proliferation
- S100A8 and S100A9 levels in PBMCs [4]: significant reductions
- S100A8 and S100A9 levels in plasma [4]: significant reductions
- overall metastatic area in lung samples ([5]; 30 mg/kg HC-7366, 4T1 allografted mice, FIGS. 1A-1B): significant reduction in overall metastatic area
- anti-metastatic effect in lungs of tumor bearing mice ([5]; 1-3 mg/kg HC-7366, PO, BID, lungs collected 21 days after treatment initiation, FIGS. 5A-5C): consistent anti-metastatic effect
- number of lung metastases ([5]; combination therapy of HC-7366 with anti-PD-1 therapy, FIG. 2): significant reduction in the number of lung metastases
- ASNS expression in lungs (IHC) [6]: Significant increases
- PSAT1 expression in lungs (IHC) [6]: Significant increases
- splenomegaly (spleen weight) [7]: significantly decreases splenomegaly
- CD86 on MDSCs in the spleen and lungs [8, 13]: significantly increased
- MHCII on MDSCs in the spleen and lungs [8, 13]: significantly increased
- CD98 expression on CD8 T-cells in the lungs ([8]; 3 mg/kg HC-7366, FIG. 14A): not on CD8 T-cells
- CD98 expression on MDSCs in the lungs ([8]; 3 mg/kg HC-7366, FIG. 14A): significantly increased
- CD98 expression on MDSCs and CD8 T-cells in the spleen ([8]; 3 mg/kg HC-7366, both cell subsets, FIG. 14B): increased CD98 expression
- MDSC frequency in spleens and lungs ([8]; 3 mg/kg HC-7366, both organs, FIG. 10A): significantly reduced
- activation markers of CD4 and CD8 T-cells in lungs (intracellular flow cytometry) ([8]; Day 21 of Tx, FIGS. 13A-13B): significantly increased activation markers
- activation markers of CD4 and CD8 T-cells in spleens (intracellular flow cytometry) ([8]; Day 21 of Tx, FIGS. 13C-13D): not in spleens
- gene expression in MDSC-enriched spleens ([9]; 3 mg/kg HC-7366): consistent increases in immune activation transcripts and reductions in inhibitory transcripts
- gene expression in tumor tissue [9]: did not show consistent effects
- ASNS protein in primary 4T1 tumors (JESS) [10]: Increases
- ATF4 protein in primary 4T1 tumors (JESS) [10]: Increases
- PSAT1 protein in primary 4T1 tumors (JESS) [10]: Increases
- TRIB3 protein in primary 4T1 tumors (JESS) [10]: Increases
